Article PMC11129182, “Development of Inhibitors, Probes, and PROTAC Provides a Complete Toolbox to Study PARK7 in the Living Cell” (Journal of Medicinal Chemistry, 2024)
Like-named read-outs stand apart in the source and are kept apart here.

What was measured:
PARK7 [1] = molecular target: T1, PARK7 (Homo sapiens, UniProt Q99497); assay: Activity evaluation of PROTACs in cells (PARK7 degradation, immunoblot); set-up: Dmax: dose or concentration left out as unconfirmed
T1 sequence (Q99497 1-189): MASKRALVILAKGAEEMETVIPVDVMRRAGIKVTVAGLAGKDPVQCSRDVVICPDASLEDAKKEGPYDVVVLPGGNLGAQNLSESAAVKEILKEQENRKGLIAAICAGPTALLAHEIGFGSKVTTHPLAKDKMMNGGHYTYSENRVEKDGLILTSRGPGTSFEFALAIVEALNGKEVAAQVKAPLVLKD
Description: A549 cells were seeded into 6-well plates. The next day after seeding, cells were incubated with the indicated concentrations of indicated PROTACs for 8 h. The cells were then washed with PBS and collected. The collected cell pellets were lysed with Tris-triton buffer as described above. The prepared cell lysate of each sample (10 μL) was added 5 μL 3× LDS + 5% β-mercaptoethanol, and boiled for 10 min.

[2] = system: other proteins of A549 cells; assay: TMT-based global proteomic profiling in A549 cells, other proteins; type: cell-based, Homo sapiens; conditions: 8 h; for Abundance Ratio: (compound) / (1 DMSO) / Abundance Ratio: log2 (compound) / (1 DMSO): A549, 5 μM
Description: (§1) A549 cells were seeded into 10 cm plates in 10 mL of media. […] Cells were lysed using a 5% SDS lysis buffer (100 mM Tris-HCl, pH 7.6) and were incubated at 95 °C for 4 min. Protein determination was performed using the Pierce BCA Gold protein assay. 100 μg of protein of each sample was reduced and alkylated, and excess iodoacetamide was quenched using 5 mM TCEP, 15 mM iodoacetamide, and 10 mM DTT, respectively. The protein was pelleted down using chloroform/methanol precipitation, and the resulting pellets were resolubilized in 40 mM HEPES pH 8.4. […] The Pierce BCA Gold protein assay was used to determine the peptide concentration. The peptides were labeled with TMTpro Label Reagents in a 1:4 ratio by mass (peptides/TMT reagents) for 1 h at RT. Five μL of 6% hydroxylamine was added to quench excess TMT reagent and incubated for 15 min at RT. Samples were pooled and lyophilized. The sample was subsequently fractionated on an Agilent 1200 series HPLC system (Agilent Technologies). 75 μg of the pooled sample was dissolved in solvent A (10 mM NH4HCO3, pH 8.4), injected onto, and eluted from an Agilent Eclipse Plus C18 2.1 × 150 mm 3.5 μm column (Agilent Technologies). The gradient was run from 2 to 90% solvent B (10 mM NH4HCO3, pH 8.4 final concentration, 20/80 water/acetonitrile v/v) in 30 min at a flow rate of 200 μL/min. Twelve fractions were made; every 30 s a fraction was collected in a vial, and the eluate of the next 30 s was collected in the next vial and so on until it loops back to the first vial (5 loops of 6 min each). Afterward, the samples were lyophilized.
2.2.07 (www.matrixscience.com) for protein identification. Mascot searches were with 10 ppm and 0.02 Da deviation for precursor and fragment mass, respectively. Enzyme specificity was set to trypsin. Up to two missed cleavages were allowed. Methionine oxidation and acetyl on protein N-terminus were set as variable modifications. Carbamidomethyl on Cys and TMTpro on Lys and N-terminus were set as fixed modifications. Protein FDR of 1% was set. Normalization was on total peptide amount. The values for each TMT channel were normalized to the average of the values for the DMSO samples for the same peptide, and these values were named FC. The log2 FC values of all replicates for the same master protein were averaged to give the “Average log2 FC”. A one-sample t test was performed against the null hypothesis of log2 FC = 0, and the resulting −log10p values were reported for each protein. The volcano plot was plotted using GraphPad Prism v.9.01.

PARK7 [3] = molecular target: T1, PARK7; assay: TMT-based global proteomic profiling in A549 cells, PARK7; type: cell-based; set-up: incubating A549 cells with 5 μM JYQ-194 for 8 h, along with 5 μM JYQ-173 and DMSO as a control; endogenous in cells; host or cells: A549; conditions: 5 μM, 8 h
Description: as §1, with “Twelve fractions were made; every 30 s a fraction was collected in a vial, and the eluate of the next 30 s was collected in the next vial and so on until it loops back to the first vial (5 loops of 6 min each). Afterward, the samples were lyophilized.” left out

[4] = molecular target: reactive cysteine sites of other proteins in A549 cells (Homo sapiens, UniProt Q13085); conditions: 4 h, Q13085_C1297 Acetyl-CoA carboxylase 1
Text: (§2) Further, the samples were digested with tosylsulfonyl phenylalanyl chloromethyl ketone (TPCK)-treated trypsin and endoGluC to increase the coverage of protein sequences, especially the PARK7 peptide containing Cys106 residue. Peptides generated by digestion from replicates of each sample were labeled using TMT16-plex to perform tandem mass tag (TMT)-based quantitative proteomics profiling. Following the TMT labeling, all samples were pooled and the peptides conjugated to the DBIA probe were enriched by streptavidin beads and analyzed by LC-MS/MS (Figure 3A). […] All cysteines were represented with the shortest peptide by using the average CR values of all the peptides with the same modified cysteine from the same protein in the same condition.[16],[27],[28]
(§3) A549 cells were seeded into 10 cm plates in 10 mL of media. […] The cells were then washed two times with cold PBS (1 mL per 10 cm plate) and collected by scraping them with a cell scraper. Cells were lysed by sonication in ice-cold PBS and centrifuged at 15,000 rpm for 2 min to remove cell debris. The BCA Gold protein assay (Thermo Fisher Scientific) was performed to determine protein concentration. Each sample (100 μg) was labeled with 500 μM DBIA probe for 1 h in the dark at room temperature (RT). Excess DBIA and disulfide bonds were quenched and reduced, respectively, using 5 mM dithiothreitol (DTT) for 30 min in the dark at RT. Reduced disulfide bonds were alkylated using 20 mM iodoacetamide for 30 min in the dark at RT. […] Digested peptides were labeled with TMTpro16-plex reagents (Thermo Fisher Scientific) in a 1:4 ratio by mass (peptides/TMT reagents) for 1 h at RT. Excess TMT reagent was quenched with 5 μL 6% hydroxylamine for 15 min at RT. All samples were then pooled and lyophilized.
(§4) Nonspecific binding peptides were washed away using the following procedure: 3 × 1 mL of PBS pH 7.4, 2 × 1 mL of PBS with 0.1% SDS pH 7.4, and 3 × 1 mL of HPLC-grade water. DBIA probe-containing peptides were eluted using 700 μL of 50% acetonitrile in 0.1% TFA, lyophilized using a Speedvac, and desalted using a handmade mini-SPE column (10% sorbent material of a Waters, OASIS 1 cm^3 HLB 30 mg cartridge). Column was equilibrated with 200 μL of 90% acetonitrile and 3 × 200 μL of 10 mM NH4HCO3 pH 8.4. The dried sample was dissolved in 200 μL of 10 mM NH4HCO3 pH 8.4, loaded onto the column, washed 3x with 200 μL of 10 mM NH4HCO3 pH 8.4, and eluted into 3 fractions with 150 μL of 10, 20, and 50% acetonitrile (in 10 mM NH4HCO3). Samples were then lyophilized.
(§5) 2.2.04 (www.matrixscience.com) for protein identification. Mascot searches were done with 10 ppm and 0.02 Da deviation for the precursor and fragment mass, respectively, and the enzymes trypsin and EndoGluC was specified, up to three missed cleavages were allowed. Methionine oxidation, acetyl (protein N-term), and DBIA on Cys were set as a variable modification. Carbamidomethyl on Cys and TMTpro on Lys and N-term were set as a fixed modification. Peptides with an FDR <1% were accepted. Peptides were only retained, if they were quantified and if there was exactly one DBIA modification on the peptide. The values for each TMT channel were normalized to the average of the values for the DMSO samples for the same peptide, and these values were named CR. For each peptide, the first entry of the Master Protein Accessions column was chosen as the Master Protein Accession, and the residue number of the cysteine modified by DBIA within the entire protein sequence was determined. Using this information, each peptide was assigned an identifier consisting of the Master Protein Accession and the residue number of the modified cysteine to assign each peptide to the respective modified cysteine residue. Within each replicate, CR values for all peptides with the same identifier (and thus the same modified cysteine residue) were combined by averaging and only the shortest Annotated Sequence was kept as the final Annotated Sequence.

[5] = molecular target: reactive cysteine sites of other proteins in A549 cells (Homo sapiens, UniProt P40222); conditions: 4 h, P40222_C87 Alpha-taxilin
Chain of reactive cysteine sites of other proteins in A549 cells (Homo sapiens, UniProt P40222) (P40222 whole entry): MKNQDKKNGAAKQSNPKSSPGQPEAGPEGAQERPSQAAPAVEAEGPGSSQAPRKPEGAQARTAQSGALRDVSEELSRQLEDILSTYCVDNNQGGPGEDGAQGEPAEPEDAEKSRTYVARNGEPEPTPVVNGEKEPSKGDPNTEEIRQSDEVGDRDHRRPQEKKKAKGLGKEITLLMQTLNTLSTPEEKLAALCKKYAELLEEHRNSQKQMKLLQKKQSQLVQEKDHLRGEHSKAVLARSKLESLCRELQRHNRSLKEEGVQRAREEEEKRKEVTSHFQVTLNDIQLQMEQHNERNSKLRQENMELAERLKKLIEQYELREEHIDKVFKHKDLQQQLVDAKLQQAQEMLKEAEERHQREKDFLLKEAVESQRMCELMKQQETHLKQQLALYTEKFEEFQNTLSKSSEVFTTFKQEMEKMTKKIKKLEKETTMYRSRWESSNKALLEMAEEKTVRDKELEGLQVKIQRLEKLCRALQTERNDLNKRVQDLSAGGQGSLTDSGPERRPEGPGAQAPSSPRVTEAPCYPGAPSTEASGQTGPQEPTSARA
Text: as §2, §3, §4, §5

[6] = molecular target: T2, reactive cysteine sites of other proteins in A549 cells (Homo sapiens, UniProt O60664); conditions: 4 h, O60664_C39 Perilipin-3
T2 sequence (O60664 1-434): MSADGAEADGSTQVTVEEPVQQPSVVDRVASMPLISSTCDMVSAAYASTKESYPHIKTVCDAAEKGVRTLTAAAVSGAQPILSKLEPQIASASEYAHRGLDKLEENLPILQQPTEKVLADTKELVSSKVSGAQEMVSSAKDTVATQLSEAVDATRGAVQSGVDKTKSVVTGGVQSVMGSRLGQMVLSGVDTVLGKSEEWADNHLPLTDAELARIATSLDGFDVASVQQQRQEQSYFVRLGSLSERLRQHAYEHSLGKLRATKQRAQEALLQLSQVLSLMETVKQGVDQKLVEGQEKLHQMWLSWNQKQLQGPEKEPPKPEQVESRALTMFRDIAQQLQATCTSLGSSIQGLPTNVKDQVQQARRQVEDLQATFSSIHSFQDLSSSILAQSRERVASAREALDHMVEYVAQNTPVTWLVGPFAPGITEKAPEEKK
Text: as §2, §3, §4, §5

[7] = molecular target: reactive cysteine sites of other proteins in A549 cells (Homo sapiens, UniProt P04080); conditions: 4 h, P04080_C3 Cystatin-B
Chain of reactive cysteine sites of other proteins in A549 cells (Homo sapiens, UniProt P04080) (P04080 whole entry): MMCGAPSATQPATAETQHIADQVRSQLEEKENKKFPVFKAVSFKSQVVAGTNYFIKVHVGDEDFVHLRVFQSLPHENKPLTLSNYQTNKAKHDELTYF
Text: as §2, §3, §4, §5

A549 cells = assay: Cell viability assay (CellTiter-Blue); type: cell-based, human; conditions: up to 5 μM, 72 h incubation
Description: 5 × 10^3 A549 cells were seeded into 96-well plates. The following day, the indicated final concentrations of JYQ-164 and JYQ-173 were added to the cells, and DMSO was used as a control. Inhibitors were renewed at 36 h, and cells were incubated with them an additional 36 h. Cell viability was measured using the CellTiter-Blue viability assay (Promega). Relative survival was normalized to the DMSO-treated sample and corrected for background signal. page 8: Figure S6. Cytotoxicity assay for JYQ-164 and JYQ-173 in A549 cells. ( A) PARK7 engagement of JYQ -164 and JYQ-173 in A459 cells. A549 cells were incubated with […] The reactions were stopped by addition of NuPAGE™ LDS sample buffer (4x) , followed by cell lysis, SDS-PAGE, fluorescence scanning, and immunoblott in g against PARK7 and β-actin. β-actin was used as a loading control. (B) A549 cells were incubated with indicated concentration of JYQ-164 (left panel) or JYQ-173 (right panel) for 72 h where the inhibitors were renewed after 36 h. Cell viability was measured using the CellTiter-Blue assay. Relative viability was normalized to untreated control and corrected for background signal. S8 (1 picture or pasted object on this page, not shown here)

N#CN1CC[C@@H](C(=O)Nc2nc3c(s2)CN(C(=O)c2cc(-n4cc(COCCOCCNc5cccc6c5C(=O)N(C5CCC(=O)NC5=O)C6=O)nn4)ccc2F)CC3)C1 (stereo partly shown) [JYQ-194]
Dmax (PARK7 [1]; A549): ~80% | time from which PARK7 degradation is observed (PARK7 [1]; A549 cells, 5 μM): 4 h | time by which maximal PARK7 degradation is reached (PARK7 [1]; A549 cells, 5 μM, remained until 24 h): 8 h | concentration at which PARK7 degradation starts (PARK7 [1]; A549 cells, 0.1 to 5 μM, 8 h): 0.1 µM | PARK7 degradation in other tumor cell lines (PARK7 [1]; Hela, H1299, and MCF7 cells, 8 h): PARK7 degradation was observed in all these cells in a dose-dependent manner | Abundance Ratio: (compound) / (1 DMSO) ([2]; ESYT2 (A0FGR8)): 1.074 | Abundance Ratio: log2 (compound) / (1 DMSO) ([2]; ESYT2 (A0FGR8)): 0.1157 | Abundance Ratio: (compound) / (1 DMSO) ([2]; RBM47 (A0AV96)): 1.045 | Abundance Ratio: log2 (compound) / (1 DMSO) ([2]; RBM47 (A0AV96)): 0.07722 | Abundance Ratio: (compound) / (1 DMSO) ([2]; SMIM26 (A0A096LP01)): 1.081 | Abundance Ratio: log2 (compound) / (1 DMSO) ([2]; SMIM26 (A0A096LP01)): 0.1302 | Abundance Ratio: (compound) / (1 DMSO) ([2]; TTC26 (A0AVF1)): 0.975 | Abundance Ratio: log2 (compound) / (1 DMSO) ([2]; TTC26 (A0AVF1)): -0.08647 | Abundance Ratio: (compound) / (1 DMSO) ([2]; UBA6 (A0AVT1)): 0.964 | Abundance Ratio: log2 (compound) / (1 DMSO) ([2]; UBA6 (A0AVT1)): -0.04606 | DOP1B protein level (total proteome profiling) ([2]; A549 cells, 5 μM): decreased | HINT2 protein level (total proteome profiling) ([2]; A549 cells, 5 μM): partly decreased | TM7SF3 protein level (total proteome profiling) ([2]; A549 cells, 5 μM): decreased | PARK7 protein level (total proteome profiling) (PARK7 [3]): induced the degradation of PARK7

N#CN1CC[C@@H](C(=O)Nc2nc3c(s2)CN(C(=O)c2cccc(S(=O)(=O)N4CCOCC4)c2)CC3)C1 [Compound 340, (R)-1-Cyano-N-(5-(3-(morpholinosulfonyl)benzoyl)-4,5,6,7-tetrahydrothiazolo[5,4-c]pyridin-2-yl)pyrrolidine-3-carboxamide]
Average log2 CR (DMSO/inhibitor) ([4]; A549, 0.5 µM): 0.8087 | Average log2 CR (DMSO/inhibitor) ([4]; A549, 5 µM): 0.7839 | Average log2 CR (DMSO/inhibitor) ([5]; A549, 0.5 µM): 0.6134 | Average log2 CR (DMSO/inhibitor) ([5]; A549, 5 µM): 0.7033 | Average log2 CR (DMSO/inhibitor) ([6]; A549, 0.5 µM): 0.5943 | Average log2 CR (DMSO/inhibitor) ([6]; A549, 5 µM): 0.5954 | Average log2 CR (DMSO/inhibitor) ([7]; A549, 0.5 µM): 1.056 | Average log2 CR (DMSO/inhibitor) ([7]; A549, 5 µM): 0.758 | cytotoxicity (A549 cells): did not show any cytotoxicity
